Measured values taken from patent US9512111B2, “N-sulfonylated tetrahydroquinolines and related bicyclic compounds for inhibition of RORγ activity and the treatment of disease” (Lycera Corporation, priority 2010, dated 2016).

Tests used:
RORγt = target: T1, RORγt (Homo sapiens, UniProt P51449); assay: RORγ Reporter Assay (GAL4-UAS luciferase reporter in HEK293 cells); assay type: cell-based; conditions: benzoxazines, Table 9; HEK cells
T1 construct: The resulting GAL4-RORγt-LBD fusion construct was placed under the control of a constitutive cytomegalovirus (CMV) promoter; expressed in transfected cells; host or cells: HEK293
T1 sequence (P51449 269-508 limits assumed): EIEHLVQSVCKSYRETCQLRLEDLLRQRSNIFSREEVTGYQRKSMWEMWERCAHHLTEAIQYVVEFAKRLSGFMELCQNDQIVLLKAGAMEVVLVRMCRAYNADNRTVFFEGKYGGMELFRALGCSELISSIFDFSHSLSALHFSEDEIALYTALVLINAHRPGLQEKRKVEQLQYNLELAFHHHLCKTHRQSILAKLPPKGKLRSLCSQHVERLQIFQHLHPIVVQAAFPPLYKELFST
Protocol: Inhibition of RORγt in cells was determined using a GAL4-UAS reporter system in HEK293 cells employing a luciferase readout. The RORγt DNA binding domain (DBD) was replaced with the heterologous yeast GAL4 DBD using standard recombinant DNA methods. The resulting GAL4-RORγt-LBD fusion construct was placed under the control of a constitutive cytomegalovirus (CMV) promoter by cloning it into the CMV-driven mammalian expression vector pcDNA3.1+− (Promega Corporation, Madison, Wis.).
A transcriptional reporter expression construct was used to monitor GAL4-RORγ activity, which contained five copies of the GAL4 binding site enhancer (UAS) controlling expression of a firefly luciferase reporter. This construct, pGL4.31, is commercially available from Promega Corporation, Madison Wis. Both expression constructs were transfected in bulk into HEK-293 cells using standard lipid-based transfection techniques, which allowed the GAL4 RORγ-LBD fusion protein to drive expression of the luciferase reporter. Control transfections were performed with an empty pCDN3.1+ vector.
The next day, cells were plated into 384 well plates, test compound was added, and the plates were incubated overnight. […] Promega firefly assays kits were used to stabilize the luciferase signal, and the intensity of the luciferase signal was measured using an EnVision Multilabel Plate Reader (Perkin Elmer, Waltham, Mass.).
HEK 293 cells are transfected with GAL4-NR construct (CMV:NR-LBD in pcDNA3.1neo) and the pGL4.31 GAL4-luciferase reporter construct (Promega). For a background control, use empty pcDNA3.1neo and pGL4.31. Transfection protocol is for a single T75 flask performed with Minis Trans-It 293 reagent. A 60 μL aliquot of Trans-IT reagent at room temperature is added drop wise to 1.5 mL of Optimem (Invitrogen). The resulting solution is mixed by inversion and incubated for 5-20 minutes at room temperature. This reagent mixture is added to 10 μg of DNA (5 μg of each expression vector used at a concentration of 1 mg/mL). The solution is mixed by inversion and incubated at room temperature for 20 minutes.
While the Trans-IT reagent and DNA are incubating, harvest HEK-293 cells. Remove media from flasks via aspiration and add enough TrypLE Express (stable Trypsin-like reagent, Invitrogen) to cover the bottom of the flask. The mixture is incubated at room temperature until the cells are visibly loose in the flask (approximately 2-5 minutes). Add an equal volume of complete growth media, and then pipette to achieve a single cell suspension. Spin down 1×10^7 cells and re-suspend the cells in 10 mL of complete growth media (DMEM high glucose/10% dialyzed FBS/pen/strep; Invitrogen). The cells and transfection mixture are added to one T75 flask. The contents of the T75 flax are mixed and incubated overnight at 37° C. and 5% CO2.
After 16-24 hours, cells are harvested and plated for test compound screening. Cells may be harvested as described above. Next, cells are counted and an appropriate number of cells are spun down. Then, cells are aspirated and re-suspended in complete growth media at a concentration of 0.5×10^6 cells/mL to provide a cell suspension. Plate 20 μL of the cell suspension into a white, tissue-culture treated 384 well plate. (10,000 cells/well).
A 10 mM stock solution of test compound in dimethylsulfoxide (DMSO) was diluted to 500× the final test concentration in DMSO, then diluted to 5× the final test concentration with complete growth medium to provide the Test Compound Solution. The concentration of DMSO in the Test Compound Solution was […]. A 5 μL aliquot of Test Compound Solution was added to each test well in the 384 well plate previously plated with the cell suspension. Next, plates are spun briefly and incubated overnight at 37° C. and 5% CO2.
After 16-24 hours, the luciferase assay is performed. Plates and luciferase reagent (e.g. One-Glo® or Dual Glo®; Promega, Madison, Wis.) are brought to room temperature.

RORγ-LBD = target: T2, RORγ-LBD (Homo sapiens, UniProt P51449); assay: RORγ-Ligand Binding Domain TR-FRET Assay; assay type: biochemical; conditions: benzoxazines, Table 9
T2 construct: HIS-tagged RORγ-LBD was recombinantly expressed in SF9 cells; made in house; host or cells: SF9 cells (baculovirus); unpurified lysate
T2 sequence (P51449 269-508 limits assumed): T1 sequence (P51449 269-508 limits assumed)
How it was run: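 Unpurified His-tagged LBD in Sf9 lysate (~10 nM final) in 25 mM HEPES pH 7.0, 100 mM NaCl, 0.01% Tween, 0.1% BSA, with biotinylated SRC1-2 LXXLL peptide (450 nM), Eu anti-His (2 nM) and streptavidin-APC (60 nM). Incubated 4 h to overnight; IC50 from 665/615 nm TR-FRET ratio.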

**Q.** With `Cc1cccc(Cl)c1C(=O)Nc1ccc2c(c1)N(S(=O)(=O)c1cccc(C#N)c1)C[C@H](CO)O2` [VI-43] as the compound, how does the IC50 (RORγt) read?
**A.** The IC50 was < 15 µM.

**Q.** And the IC50 (RORγ-LBD)?
**A.** The IC50 was < 15 µM.

**Q.** With `CCOCC1CN(S(=O)(=O)c2cccc(C#N)c2)c2cc(NC(=O)c3c(F)cccc3Cl)ccc2O1` (stereo not shown) [VI-100] as the compound, how does the IC50 (RORγt) read?
**A.** Its IC50 is < 15 µM.

**Q.** And the IC50 (RORγ-LBD)?
**A.** Its IC50 is < 15 µM.

**Q.** `O=C(Nc1ccc2c(c1)N(S(=O)(=O)c1ccc(F)cc1)CC(CC(F)(F)F)O2)c1c(F)cccc1C(F)(F)F` (stereo not shown) [VI-14] was tested. Which IC50 (RORγt) did it give?
**A.** The IC50 was < 15 µM.

**Q.** What about the IC50 (RORγ-LBD) of the same compound?
**A.** Its IC50 is < 15 µM.

**Q.** With `COCC1CN(S(=O)(=O)c2ccc(F)c(F)c2)c2cc(NC(=O)c3c(F)cccc3C(F)(F)F)ccc2O1` (stereo not shown) [VI-79] as the compound, how does the IC50 (RORγt) read?
**A.** The IC50 was < 15 µM.

**Q.** What about the IC50 (RORγ-LBD) of the same compound?
**A.** Its IC50 is < 15 µM.

**Q.** For `O=C(Nc1ccc2c(c1)N(S(=O)(=O)c1ccc(F)cc1)CC(CC(F)(F)F)O2)c1c(Cl)cccc1C(F)(F)F` (stereo not shown) [VI-15], which IC50 (RORγt) is on record?
**A.** Its IC50 is < 15 µM.

**Q.** And the IC50 (RORγ-LBD)?
**A.** The IC50 was < 15 µM.

**Q.** Which IC50 (RORγt) does the source give for `O=C(Nc1ccc2c(c1)N(S(=O)(=O)c1ccc(Cl)cc1)C[C@H](CO)O2)c1c(F)cccc1C(F)(F)F` [VI-67] here?
**A.** Its IC50 is < 15 µM.

**Q.** What about the IC50 (RORγ-LBD) of the same compound?
**A.** Its IC50 is < 15 µM.

**Q.** `O=C(Nc1ccc2c(c1)N(S(=O)(=O)c1ccc(F)cc1)C[C@H](CO)O2)c1c(Cl)cccc1Cl` [VI-83] was tested. Which IC50 (RORγt) did it give?
**A.** Its IC50 is < 15 µM.

**Q.** And the IC50 (RORγ-LBD)?
**A.** The IC50 was < 15 µM.

**Q.** With `CC(C)OCC1CN(S(=O)(=O)c2ccc(F)cc2)c2cc(NC(=O)c3c(Cl)cccc3Cl)ccc2O1` (stereo not shown) [VI-109] as the compound, how does the IC50 (RORγt) read?
**A.** The IC50 was < 15 µM.

**Q.** What about the IC50 (RORγ-LBD) of the same compound?
**A.** Its IC50 is < 15 µM.

**Q.** With `CC(C)(C)CNCC1CN(S(=O)(=O)c2ccc(F)cc2)c2cc(NC(=O)c3c(F)cccc3Cl)ccc2O1` (stereo not shown) [VI-36] as the compound, how does the IC50 (RORγt) read?
**A.** The IC50 was < 15 µM.

**Q.** What about the IC50 (RORγ-LBD) of the same compound?
**A.** The IC50 was < 15 µM.

**Q.** What does the source list for `CCOCC1CN(S(=O)(=O)c2ccc(F)c(F)c2)c2cc(NC(=O)c3c(Cl)cccc3Cl)ccc2O1` (stereo not shown) [VI-98]?
**A.** IC50 (RORγt): < 15 µM; IC50 (RORγ-LBD): < 15 µM

**Q.** For `CCOCC1CN(S(=O)(=O)c2ccc(Cl)cc2)c2cc(NC(=O)c3c(Cl)cccc3Cl)ccc2O1` (stereo not shown) [VI-92], which IC50 (RORγt) is on record?
**A.** Its IC50 is < 15 µM.

**Q.** What about the IC50 (RORγ-LBD) of the same compound?
**A.** The IC50 was < 15 µM.

**Q.** With `O=C(Nc1ccc2c(c1)N(S(=O)(=O)c1ccc(Cl)cc1)C[C@@H](CO)O2)c1c(F)cccc1C(F)(F)F` [VI-51] as the compound, how does the IC50 (RORγt) read?
**A.** The IC50 was < 15 µM.

**Q.** And the IC50 (RORγ-LBD)?
**A.** Its IC50 is < 15 µM.

**Q.** What does the source list for `O=C(Nc1ccc2c(c1)N(S(=O)(=O)c1ccc(F)cc1)CC(CC(F)(F)F)O2)c1c(Cl)cccc1Cl` (stereo not shown) [VI-13]?
**A.** IC50 (RORγt): < 15 µM; IC50 (RORγ-LBD): < 15 µM

**Q.** For `CCOCC1CN(S(=O)(=O)c2cccc(C#N)c2)c2cc(NC(=O)c3c(F)cccc3F)ccc2O1` (stereo not shown) [VI-102], which IC50 (RORγt) is on record?
**A.** Its IC50 is < 15 µM.

**Q.** And the IC50 (RORγ-LBD)?
**A.** Its IC50 is < 15 µM.

**Q.** How did the IC50 (RORγt) turn out when `Cc1cccc(F)c1C(=O)Nc1ccc2c(c1)N(S(=O)(=O)c1ccc(F)cc1)C[C@H](CO)O2` [VI-44] was run?
**A.** Its IC50 is < 15 µM.

**Q.** And the IC50 (RORγ-LBD)?
**A.** Its IC50 is < 15 µM.

**Q.** Which results are given for `O=C(Nc1cc2c(cc1F)O[C@@H](CO)CN2S(=O)(=O)c1ccc(F)cc1)c1c(Cl)cccc1Cl` [VI-40]?
**A.** IC50 (RORγt): < 15 µM; IC50 (RORγ-LBD): < 15 µM

**Q.** For `O=C(Nc1ccc2c(c1)N(S(=O)(=O)c1ccccc1)C[C@H](CO)O2)c1c(F)cccc1Cl` [VI-24], which IC50 (RORγt) is on record?
**A.** The IC50 was < 15 µM.

**Q.** And the IC50 (RORγ-LBD)?
**A.** The IC50 was < 15 µM.

**Q.** `CC(=O)NCC1CN(S(=O)(=O)c2ccc(F)cc2)c2cc(NC(=O)c3c(F)cccc3Cl)ccc2O1` (stereo not shown) [VI-39] was tested. Which IC50 (RORγt) did it give?
**A.** The IC50 was < 15 µM.

**Q.** And the IC50 (RORγ-LBD)?
**A.** Its IC50 is < 15 µM.

**Q.** What does the source list for `O=C(Nc1ccc2c(c1)N(S(=O)(=O)c1ccc(F)cc1)C[C@@H](CO)O2)c1c(F)cccc1F` [VI-110]?
**A.** IC50 (RORγt): < 15 µM; IC50 (RORγ-LBD): < 15 µM

**Q.** With `COCC1CN(S(=O)(=O)c2ccc(F)cc2)c2cc(NC(=O)c3c(Cl)cccc3Cl)ccc2O1` (stereo not shown) [VI-105] as the compound, how does the IC50 (RORγt) read?
**A.** The IC50 was < 15 µM.

**Q.** And the IC50 (RORγ-LBD)?
**A.** Its IC50 is < 15 µM.
